Experimental data: the supplement of paper PMC10307832

What was measured:
Assay in all cases: relative viability (nuclei count vs DMSO), 5 days (fraction); higher = more cells survive
BMX-IN-1 + Pictilisib = compound: C=CC(=O)Nc1cc(-n2c(=O)ccc3cnc4ccc(-c5ccc(NS(C)(=O)=O)cc5)cc4c32)ccc1C [BMX-IN-1] + CS(=O)(=O)N1CCN(Cc2cc3nc(-c4cccc5[nH]ncc45)nc(N4CCOCC4)c3s2)CC1 [Pictilisib] (partner 1 µM)
In short: (§1)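 Nuclei were stained with Hoechst during a one-step fixation (final 0.05% Triton X-100, 1% formaldehyde, 1 ug/ml Hoechst) carried out 5 days after dosing, then counted on 4× images. The cells, lung cancer lines in 1536-well plates, had been dosed by pin tool the day after seeding with one drug alone or a fixed anchor-drug dose plus five library-drug doses (not always all listed) in √10 steps. Relative viability is the nuclei count in treated wells divided by that in vehicle wells, and each value is the median of duplicate plates.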

Ibrutinib + Linsitinib = compound: C=CC(=O)N1CCC[C@@H](n2nc(-c3ccc(Oc4ccccc4)cc3)c3c(N)ncnc32)C1 [Ibrutinib] + C[C@]1(O)C[C@@H](c2nc(-c3ccc4ccc(-c5ccccc5)nc4c3)c3c(N)nccn32)C1 [Linsitinib] (partner 1 µM)
In short: as §1

PAC-1 + OSI-027 = compound: C=CCc1cccc(/C=N/NC(=O)CN2CCN(Cc3ccccc3)CC2)c1O [PAC-1] + COc1cccc2cc(-c3nc([C@H]4CC[C@H](C(=O)O)CC4)n4ncnc(N)c34)[nH]c12 [OSI-027] (partner 0.5 µM)
In short: as §1

BMX-IN-1 + Pemetrexed = compound: C=CC(=O)Nc1cc(-n2c(=O)ccc3cnc4ccc(-c5ccc(NS(C)(=O)=O)cc5)cc4c32)ccc1C [BMX-IN-1] + Nc1nc2[nH]cc(CCc3ccc(C(=O)N[C@@H](CCC(=O)O)C(=O)O)cc3)c2c(=O)[nH]1 [Pemetrexed] (partner 0.2 µM)
In short: as §1

Cell Line	relative viability (BMX-IN-1 + Pictilisib; first compound 0.02 µM)	relative viability (BMX-IN-1 + Pictilisib; first compound 0.2 µM)	relative viability (BMX-IN-1 + Pictilisib; first compound 0.6325 µM)	relative viability (BMX-IN-1 + Pictilisib; first compound 2 µM)	relative viability (Ibrutinib + Linsitinib; first compound 0.005 µM)	relative viability (Ibrutinib + Linsitinib; first compound 0.01581 µM)	relative viability (Ibrutinib + Linsitinib; first compound 0.05 µM)	relative viability (Ibrutinib + Linsitinib; first compound 0.1581 µM)	relative viability (Ibrutinib + Linsitinib; first compound 0.5 µM)	relative viability (PAC-1 + OSI-027; first compound 0.02 µM)	relative viability (PAC-1 + OSI-027; first compound 0.06325 µM)	relative viability (PAC-1 + OSI-027; first compound 0.2 µM)	relative viability (PAC-1 + OSI-027; first compound 2 µM)	relative viability (BMX-IN-1 + Pemetrexed; first compound 0.02 µM)	relative viability (BMX-IN-1 + Pemetrexed; first compound 0.2 µM)	relative viability (BMX-IN-1 + Pemetrexed; first compound 0.6325 µM)	relative viability (BMX-IN-1 + Pemetrexed; first compound 2 µM)
NCI-H460	0.376	0.511	0.371	0.501	0.643	0.652	0.861	0.76	0.772	0.582	0.727	0.626	0.637	0.0558	0.0711	0.0676	0.071
NCI-H520	0.376	0.299	0.304	0.278	0.928	0.76	0.971	1.03	0.883	0.299	0.275	0.265	0.259	0.762	0.853	0.686	0.762
NCI-H596	0.382	0.379	0.405	0.343	1.13	0.946	0.99	0.996	0.841	0.733	0.745	0.695	0.719	0.497	0.522	0.496	0.511
NCI-H647	0.498	0.356	0.396	0.471	1.05	0.995	1.15	1.14	1.1	0.684	0.762	0.594	0.617	0.162	0.169	0.15	0.142
NCI-H650	1.02	0.826	0.872	0.772		0.688		1.19	0.889	0.47	0.515	0.468	0.535	0.926	0.961	0.956	0.919
NCI-H661	0.349	0.436	0.368	0.316	0.477	0.48	0.543	0.546	0.355	0.631	0.747	0.785	0.577	1.02	0.96	0.961	0.899
NCI-H838	0.535	0.444	0.598	0.472	1.02	1	0.983	1.08	1.01	0.359	0.386	0.373	0.398	0.255	0.244	0.237	0.236
NCI-H1355	0.374	0.443	0.487	0.434		0.666	0.713	0.885	0.67	0.403	0.436	0.404	0.438	1.1	1.1	1.06	1.04
NCI-H1395	0.82	1.02	0.701	0.61	1.16	0.968	0.995	1.45	1.13	0.66	0.603	0.667	0.54	0.877	0.976	0.722	0.756
NCI-H1437	0.455	0.391	0.425	0.462	1.01	0.926	0.989	1.09	0.993	0.893	0.867	0.82	0.762	0.351	0.285	0.34	0.292
NCI-H1563	0.601	0.629	0.655	0.684	1.37	1.08	1.33	1.16	1.06	0.757	0.814	0.742	0.753	0.748	0.769	0.724	0.675
NCI-H1651	0.658	0.754	0.741	0.595	0.99	0.765	0.901	0.991	0.927	0.766	0.744	0.64	0.612	0.391	0.642	0.781	0.486
NCI-H1666	0.404	0.365	0.428	0.396	0.86	0.628	0.615	0.955	0.422	0.848	0.866	0.777	0.849	0.908	0.881	0.877	0.867
NCI-H1734	0.529	0.541	0.488	0.432	0.801	0.887	0.885	0.885	0.745	0.607	0.589	0.522	0.642	0.451	0.409	0.407	0.377
NCI-H1755	0.446	0.541	0.498	0.423	1.02	0.92	1.06	1.02	0.903	0.717	0.722	0.601	0.72	0.41	0.6	0.39	0.552
NCI-H1792	0.321	0.299	0.227	0.253	0.553	0.44	0.506	0.608	0.53	0.731	0.715	0.684	0.733	0.903	1.28	0.885	1.17
NCI-H1793	0.306	0.309	0.365	0.279		0.66	0.652	0.797	0.509	0.249	0.277	0.311	0.247	0.945	1.01	0.966	0.806
NCI-H1915	0.953	0.898	1.14	1.04		1.03	1.12	1.13	1.1	0.603	0.621	0.592	0.586	0.585	0.522	0.484	0.396
